# DBAASP
# Columns and labels:
# Experiment in all cases: ≥ marks a high value that may be exact or a test limit, other limits are often not marked, values filed in µg/mL are converted to µM
# [1] = tested on: Streptococcus pyogenes ATCC 19615
# [2] = tested on: Escherichia coli ATCC 35218
# [3] = tested on: Micrococcus luteus ATCC 9341
# [4] = tested on: Enterococcus faecalis ATCC 29212
# [5] = tested on: Staphylococcus epidermidis ATCC 12228
# [6] = tested on: Escherichia coli ATCC 25922
# [7] = tested on: Bacillus cereus ATCC 11778
# [8] = tested on: Pseudomonas aeruginosa ATCC 9027
# Escherichia coli O157 = tested on: Escherichia coli O157
# [9] = tested on: Salmonella enterica subsp. arizonae ATCC 13314
# Escherichia coli JM109 = tested on: Escherichia coli JM109
# Pseudomonas aeruginosa = tested on: Pseudomonas aeruginosa
# Staphylococcus aureus = tested on: Staphylococcus aureus
# [10] = tested on: Staphylococcus aureus ATCC 6538P
# [11] = tested on: Candida albicans ATCC 36232
# [12] = tested on: Shigella flexneri ATCC 203
# [13] = tested on: Escherichia coli ATCC 2592
# [14] = tested on: Staphylococcus aureus ATCC 6538
# [15] = tested on: Bacillus subtilis ATCC 6633
# [16] = tested on: Corynebacterium diphtheriae ATCC 8024
# Candida albicans = tested on: Candida albicans
# [17] = tested on: Staphylococcus aureus FDA 209P JC-1
# [18] = tested on: Escherichia coli NIHJ JC-2
smiles,measurement,setting,value
CC(C)C[C@H](NC(=O)[C@H](CCC(N)=O)NC(=O)[C@H](Cc1ccc(O)cc1)NC(=O)[C@H](CCCN=C(N)N)NC(=O)CNC(=O)[C@H](C)NC(=O)[C@H](C)NC(=O)[C@@H](NC(=O)[C@H](CO)NC(=O)[C@H](Cc1ccc(O)cc1)NC(=O)[C@@H](NC(=O)[C@H](CCCCN)NC(=O)[C@H](Cc1ccc(O)cc1)NC(=O)[C@H](CCCN=C(N)N)NC(=O)[C@@H]1CCCN1C(=O)[C@H](CC(C)C)NC(=O)[C@H](Cc1ccc(O)cc1)NC(=O)[C@@H](NC(=O)[C@H](CCCCN)NC(=O)[C@H](CC(C)C)NC(=O)[C@H](CCCN=C(N)N)NC(=O)[C@@H]1CCCN1)C(C)C)C(C)C)[C@@H](C)O)C(=O)N[C@@H](CC(C)C)C(=O)N[C@@H](CO)C(=O)N[C@@H](CCCN=C(N)N)C(=O)N[C@@H](Cc1ccc(O)cc1)C(=O)N[C@@H](Cc1c[nH]c2ccccc12)C(N)=O [PRLKVYLPRYKVYSTAAGRYQLLSRYW],MIC,[1],≥ 38 µM
same,MIC,[2],≥ 150 µM
same,MIC,[3],19 µM
same,MIC,[4],150 µM
same,MIC,[5],150 µM
same,MIC,[6],150 µM
same,MIC,[7],≥ 75 µM
same,MIC,[8],> 150 µM
same,MIC,Escherichia coli O157,≥ 150 µM
same,MIC,[9],≥ 150 µM
CC[C@H](C)[C@H](NC(=O)[C@H](C)NC(=O)[C@H](CC(C)C)NC(=O)[C@H](Cc1c[nH]c2ccccc12)NC(=O)[C@H](CC(C)C)NC(=O)[C@H](C)N)C(=O)N[C@@H](CCCN=C(N)N)C(=O)N[C@@H](CCCN=C(N)N)C(=O)N[C@@H](CCCN=C(N)N)C(N)=O [ALWLAIRRR],MIC,Escherichia coli JM109,2.6 µM
same,MIC,Pseudomonas aeruginosa,3.46 µM
same,MIC,Staphylococcus aureus,27.7 µM
same,MIC,[10],1.73 µM
CC(C)[C@H](NC(=O)[C@H](CS)NC(=O)[C@@H](NC(=O)[C@H](CCCN=C(N)N)NC(=O)[C@H](CCCCN)NC(=O)CNC(=O)[C@H](CC(N)=O)NC(=O)[C@@H](N)CS)C(C)C)C(=O)N[C@@H](CS)C(=O)N[C@@H](CCCN=C(N)N)C(N)=O [CNGKRVCVCR],MIC,[11],13.2 µM
same,MIC,[12],26.4 µM
same,MIC,[3],11 µM
same,MIC,[13],6.59 µM
same,MIC,[14],26.4 µM
same,MIC,[5],13.2 µM
same,MIC,[15],13.2 µM
same,MIC,Staphylococcus aureus,> 87.9 µM
same,MIC,[8],44 µM
same,MIC,[16],6.59 µM
CC(C)C[C@H](NC(=O)CN)C(=O)N[C@@H](CC(C)C)C(=O)N[C@@H](CC(=O)O)C(=O)N[C@@H](CO)C(=O)N[C@@H](CC(C)C)C(=O)N[C@@H](CCCCN)C(=O)NCC(=O)N[C@@H](Cc1ccccc1)C(=O)N[C@@H](C)C(=O)N[C@@H](C)C(=O)N[C@H](C(=O)N[C@@H](C)C(=O)NCC(=O)N[C@@H](CCCCN)C(=O)NCC(=O)N[C@H](C(=O)N[C@@H](CC(C)C)C(=O)N[C@@H](CCC(N)=O)C(=O)N[C@@H](CO)C(=O)N[C@@H](CC(C)C)C(=O)N[C@@H](CC(C)C)C(=O)N[C@@H](CO)C(=O)N[C@H](C(=O)N[C@@H](C)C(=O)N[C@@H](CO)C(=O)N[C@H]1CSSC[C@@H](C(=O)O)NC(=O)[C@H]([C@@H](C)O)NC(=O)[C@H](CCCCN)NC(=O)[C@H](C)NC(=O)[C@H](CC(C)C)NC(=O)[C@H](CCCCN)NC1=O)[C@@H](C)O)C(C)C)[C@@H](C)O [GLLDSLKGFAATAGKGVLQSLLSTASCKLAKTC],MIC,Candida albicans,> 40 µM
same,MIC,[17],2.46 µM
same,MIC,[18],1.23 µM
same,MIC,[15],0.615 µM
